# Entries after “also recorded” stand apart in the source; their conditions may differ.
# Tests used:
# [1] = test system: outbred Swiss mice, murine CL/P model; test: Survival in cecal ligation and puncture (CL/P) model; assay type: in vivo, mouse; conditions: 10 mcg/kg IP, 1 hour prior and 6 hours after surgery, vs CL/P control, p=0.06
# Experimental: FIG. 11 is a graph tracking survival of outbred Swiss mice in various treatment arms of a murine CL/P model. CRISPP treated mice (10 mcg/kg) received 2 doses intraperitoneally; one given 1 hour prior to surgery or sham surgery and one dose given 6 hours after surgery. The same dose, delivery route, and schedule were followed for the scrambled peptide control mice. Ten mice were assessed in each of the CL/P groups.
# Survival of outbred Swiss mice was tracked in various treatment arms following intraperitoneal injection of either LPS (20 mg/kg) or E. coli (4×10^7 bacteria), as shown in FIGS. 10A and 10B. […] Six mice were assessed in both groups: LPS+CRISPP and LPS+scrambled control peptide. […] Ten mice were assessed in each group: no treatment, E. coli+CRISPP, and E. coli+scrambled control peptide. […] Referring to FIG. 11, CRISPP was also evaluated in a murine model of polymicrobial infection caused by cecal ligation and puncture (CL/P). […] Ten mice were assessed in each of the CL/P groups. […]
# Animals were treated with CRISPP (10 mg/kg), nNIF (10 mg/kg), or SCR (10 mg/kg) by i.p. injection 1 hour prior to and 6 hours after infection (E. coli, 4.5×10^7 cfu/mouse, i.p. injection) or stimulation (LPS, 25 mg/kg, i.p. injection). […] Survival was assessed over 6 days at 6 hour to 12 hour intervals.
# [2] = test system: human PMNs and platelets; test: Platelet/PMN aggregation; assay type: cell-based; conditions: LPS-stimulated PMNs mixed with thrombin-stimulated platelets
# Experimental: Using protocols modified from Saboor et al., […] Med Sci, 2013, 20: 62-66, human PMNs (2×10^6 cells/mL) were isolated and incubated with […] or SCR (0.1-10 ng/ml) for 1 hour prior to addition of freshly isolated human platelet at a ratio of 100:1 for another 15 minute incubation. After this period, the cells (PMNs and platelets) were stimulated with thrombin (0.1 IU/mL) or control M-199 media for 1 hour. The cells were stained for 20 minutes with the following primary monoclonal antibodies: PE-conjugated CD41 and FITC-conjugated CD16. Isotype and fluorochrome matched control antibodies were used. Flow cytometry was performed using BECTON-DICKINSON FACSCAN and CELLQUEST software.
# [3] = test system: Mature ewe PMNs; test: NET formation by sheep PMNs; assay type: cell-based
# Excerpt: Referring to FIGS. 13A and 13B, PMNs from preterm lamb cord blood and from mature ewes were isolated.
# [4] = test system: Outbred Swiss-Webster mice, E. coli peritonitis; test: Murine E. coli peritonitis: peritoneal fluid and membrane analysis; assay type: in vivo, mouse
# Experimental: Outbred Swiss-Webster mice were injected intraperitoneally with 4.5×10^7 colony-forming units (cfu) of E. coli±nNIF, CRISPP, or scrambled control peptide (SCR) (10 mg/kg, IP injection) one hour prior to E. coli infection. At the 3 hour time point after infection, 3 mice were sacrificed and the peritoneal fluid and peritoneal tissue were collected and analyzed for leukocyte accumulation, bacteriology, and in vivo NET formation. […] See Fuchs et al., J Cell Biol, 2007, 176: 231-241. The number of E. coli cfu/mL of peritoneal fluid in CRISPP pretreated mice was also determined compared to SCR mice (see FIG. 17C).
# Animals were treated with CRISPP (10 mg/kg), nNIF (10 mg/kg), or SCR (10 mg/kg) by i.p. injection 1 hour prior to infection (E. coli, 4.5×10^7 cfu/mouse, i.p. injection) or stimulation (LPS, 25 mg/kg, i.p. injection (SIGMA)). Control mice were injected with saline alone. The mice were sacrificed in a CO2 chamber 3 hours post-infection/stimulation with the peritoneal contents harvested and analyzed. Briefly, the skin of the abdomen was cut open in the midline after thorough disinfection and without injuring the muscle. The peritoneal cavity was lavaged with sterile saline solution ([…]) and analyzed for in vivo NET formation, bacteriology, and leukocyte accumulation. NETs in the peritoneal fluid were qualitatively and quantitatively analyzed using live cell imaging with confocal microscopy and histone release assays. NETs on the inner surface of the peritoneal membrane were assessed quantitatively using live cell imaging followed by standardized grid analysis of 5 randomly selected high power visual fields per tissue sample (IMAGE-J software, NIH). Peritoneal bacterial colony forming units (cfu) counts were quantified by permeabilizing all recovered leukocytes with 0.1% Triton-X 100 for 10 minutes and performing serial dilutions and bacterial cultures on 5% sheep blood agar plates (HARDY DIAGNOSTICS). After a 24-hour incubation, bacterial counts were determined. Total leukocyte counts in the peritoneal lavage were determined in Neubauer chambers using an optical microscope after dilution in Turk's solution (2% acetic acid). Differential leukocyte analysis was performed using a 60× oil immersion objective to assess morphology of cyto-centrifuged cells stained with May-Grunwald-Giemsa dye.
# [5] = test system: LPS-stimulated PMNs; test: NET formation by LPS-stimulated adult human PMNs (live cell imaging, histone H3 release); assay type: cell-based; conditions: healthy adult PMNs; peptide/protein pre-incubation 1 hour (1 nM where stated); LPS 100 ng/mL
# Experimental: PMNs from healthy adult donors and from 28 day old preterm infants were pre-incubated for one hour with thawed cord blood plasma from that particular preterm infant or with autologous plasma collected that day from either the preterm infant peripheral blood sample or the blood sample from the healthy adult. NET formation was then assessed in vitro following LPS-stimulation (100 ng/mL) for 2 hours.
# Human PMNs isolated from healthy adult donors were stimulated with LPS (100 ng/mL) or phorbal-12-mystirate (PMA; 20 nM), ±nNIF (1 nM) or CRISPP (1 nM), pre-incubation (1 hour). Scrambled control peptide (SCR) generated using the identical amino acid content as CRISPP but linked in a random order was used as a control. NET formation was assessed 2 hours after stimulation.
# Briefly, primary PMNs isolated from preterm infants, healthy term infants, and healthy adults (2×10^6 cells/mL) were incubated with control buffer or stimulated with LPS (100 ng/mL), PMA (20 nM), or S. aureus bacteria (MOI 100) for 1 hour at 37° C. in 5% CO2/95% air on glass coverslips coated with poly-L-lysine. For selected experiments, primary PMNs were pre-incubated with autologous plasma, cord blood plasma, nNIF (1 nM), CRISPP (1 nM), or SCR (1 nM) for 1 hour prior to imaging. After pre-incubation and/or stimulation, PMNs were gently washed with PBS and incubated with a mixture of cell permeable (SYTO Green, MOLECULAR PROBES) and impermeable (SYTOX Orange, MOLECULAR PROBES) DNA fluorescent dyes. Confocal microscopy was accomplished using a FV300 1×81 Microscope and FLUOVIEW software (OLYMPUS). Both 20× and 60× objectives were used. Z-series images were obtained at a step size 1 μm over a range of 20 μm for each field. OLYMPUS FLUOVIEW and ADOBE PHOTOSHOP CS2 software were used for image processing.
# Supernatant total histone H3 content was determined as previously referenced in McInturff et al., Blood, 2012, 120: 3118-3125. After live cell imaging of control and stimulated primary PMNs (2×10^6/mL; various agonists), the cells were incubated with PBS containing DNase (40 U/mL) for 15 minutes at room temperature to break down and release NETs formed in response to stimulation. The supernatant was gently removed and centrifuged at 420×g for 5 minutes. The cell-free supernatant was then mixed 1:3 with 4× Laemmli buffer prior to western blotting. A polyclonal primary antibody against human histone H3 protein (CELL SIGNALING TECHNOLOGY) and infrared secondary antibodies (LI-COR BIOSCIENCES) were used. Imaging and densitometry were performed on the ODYSSEY™ infrared imaging system (LI-COR BIOSCIENCES).
# To determine whether the 29 amino acid peptide identified in Example 5 were the substances circulating in umbilical cord blood responsible for the inhibition of NET formation, cord blood plasma was depleted of nNIF via affinity purification using the carboxy-terminus AAT antibody. nNIF was then eluted from the column and used in experiments to assess the NET-inhibitory activity of unaltered cord blood plasma, nNIF-depleted cord blood plasma, and affinity purified nNIF from cord blood plasma. As a control, recombinant AAT in nNIF-depleted cord blood was also assessed (see FIGS. 5A-5F).
# Cord blood plasma depleted of both nNIF and full length AAT was collected as were the peptides captured by affinity purification for use in in vitro assays of NET formation. Full length, enzymatically active AAT (SIGMA) was also resuspended in elution buffer and tested in parallel.
# [6] = 10 mg/kg IP pretreatment, vs SCR control
substance,measurement,setting,value
"Cancer-Associated SCM-Recognition, Immune Defense Suppression, and Serine Protease Protection Peptide [CRISPP, nNIF-related peptide (nNRP)]",Survival,[1],approached statistical significance
same,Platelet/PMN association (flow cytometry),[2],did not alter
same,NET formation by LPS-stimulated sheep PMNs,"[3]; mature ewe PMNs, pre-treatment 1 hour, LPS 100 ng/mL",inhibited NET formation in a dose-dependent manner
same,NET formation by PMA-stimulated sheep PMNs,"[3]; sheep PMNs, PMA",inhibited NET formation
same,Peritoneal PMN accumulation,"[4]; 10 mg/kg IP one hour prior to E. coli, 3 hours after infection, vs E. coli alone or SCR",significant increase
same,Peritoneal fluid bacterial concentration (E. coli cfu/mL),"[4]; 10 mg/kg IP one hour prior to E. coli, 3 hours after infection, vs SCR",significant increase
same,NET formation by histone H3 release assay of the peritoneal fluid,[4]; [6],significant quantitative decrease
same,NET formation in the peritoneal fluid (live cell imaging),[4]; [6],qualitative decrease
same,Peritoneal membrane-associated NET formation,"[4]; freshly resected peritoneal membrane, live cell imaging, standardized grid",qualitative and quantitative decrease
same,NET formation by LPS-stimulated PMNs,[5],blocked NET formation by LPS-stimulated PMNs in a concentration dependent manner; also recorded: significantly inhibited NET formation

# Reference: patent US10232023B2, “Methods for treatment of and prophylaxis against inflammatory disorders” (THE UNIVERSITY OF UTAH RESEARCH FOUNDATION, priority 2013, dated 2019)
